Experimental findings from US20240174744A1, “METHODS OF TREATMENT USING PROTEIN BINDERS TO IRHOM2 EPITOPES” (SCIRHOM GMBH, priority 2021, published 2024) are described below.

The assay concerns PMA-induced release of TNFα from U-937 cells. Kind of assay: ELISA-based TNFα release assay, PMA-stimulated U-937 cells. The assay is classed as cell-based. The note with it: Homo sapiens, U-937, 1 h, Batimastat 10 μM, PMA 25 ng/ml. The method, then:
In contrast to Example 14 and 17, where the inhibitory effects of the antibodies of the present disclosure on LPS-induced release of endogenous TNFα from human THP-1 cells were tested, this analysis was conducted with recombinantly produced murine antibodies of the present disclosure to verify their inhibitory effects on PMA-induced release of endogenous TNFα from human monocytic U-937 cells.
In brief, on day 1, Nunc black MaxiSorp® 96-well plates (Thermo Fisher Scientific, USA) were coated overnight with 100 μl per well of mouse anti-human TNFα capture antibody (provided as part of the DuoSet ELISA kit) at 4 μg/ml TBS at 4° C. On day 2, the capture antibody solution was removed and MaxiSorp® plates were blocked with 300 μl per well of TBS, 1% BSA at room temperature for 1-2 hours. […] Using an infinite M1000 (Tecan Group, Switzerland) microplate reader, the fluorescence of each well was collected at an excitation wavelength of 435 nm and an emission wavelength of 555 nm. […]

What is called inhibition is the share of the control response that was lost under treatment. Take `CNC(=O)[C@H](Cc1ccccc1)NC(=O)[C@H](CC(C)C)[C@H](CSc1cccs1)C(=O)NO` [Batimastat]: the inhibition at 10 µM turned out to be 98.7% (murine (m) and chimeric (ch) antibodies 3 μg/ml); 100% (recombinant murine antibodies 1 μg/ml).
